Data reported in PubChem BioAssay (NCI).
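Five compound concentrations were applied to cells in 96-well plates for 48 hours; endpoints were derived by simple linear interpolation of the resulting dose-response curve. GI50 = concentration required for 50% inhibition of growth. TGI: total growth inhibition.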

Legend:
Assay in all cases: NCI anticancer screen, dose series, 48 h
786-0 renal = tested on: 786-0 renal
EKVX NSCLC = tested on: EKVX NSCLC
HCC-2998 colon = tested on: HCC-2998 colon
KM12 colon = tested on: KM12 colon
SF-268 CNS = tested on: SF-268 CNS
SK-MEL-2 melanoma = tested on: SK-MEL-2 melanoma
SNB-19 CNS = tested on: SNB-19 CNS
SR leukemia = tested on: SR leukemia
U251 CNS = tested on: U251 CNS
UACC-257 melanoma = tested on: UACC-257 melanoma

| SMILES | TGI (786-0 renal) | TGI (EKVX NSCLC) | TGI (HCC-2998 colon) | TGI (KM12 colon) | TGI (SF-268 CNS) | TGI (SK-MEL-2 melanoma) | TGI (SNB-19 CNS) | TGI (SR leukemia) | TGI (U251 CNS) | TGI (UACC-257 melanoma) | GI50 (786-0 renal) | GI50 (EKVX NSCLC) | GI50 (HCC-2998 colon) | GI50 (KM12 colon) | GI50 (SF-268 CNS) | GI50 (SK-MEL-2 melanoma) | GI50 (SNB-19 CNS) | GI50 (SR leukemia) | GI50 (U251 CNS) | GI50 (UACC-257 melanoma) |
| --- | --- | --- | --- | --- | --- | --- | --- | --- | --- | --- | --- | --- | --- | --- | --- | --- | --- | --- | --- | --- |
| CCc1[nH]c(=O)nc(N)c1-c1ccc(N2CCCCC2)c([N+](=O)[O-])c1 | > 100 µM | > 100 µM | > 100 µM | > 100 µM | > 100 µM | > 100 µM | > 100 µM | > 100 µM | > 100 µM | > 100 µM |  |  |  |  |  |  |  |  |  |  |
| N.N.N.N.N.O=C([O-])c1nn[n-]n1.[Cl-].[Co+3] | > 100 µM | > 100 µM | > 100 µM | > 100 µM | > 100 µM | > 100 µM | > 100 µM | > 100 µM | > 100 µM | > 100 µM | > 100 µM | > 100 µM | > 100 µM | > 100 µM | > 100 µM | > 100 µM | > 100 µM | > 100 µM | > 100 µM | > 100 µM |
| COc1c2c(cc3nc4ccccc4nc13)CCC(C(C)(C)O)C2 (centres undefined) | > 100 µM | > 100 µM | > 100 µM | > 100 µM | > 100 µM | > 100 µM | > 100 µM | > 100 µM | > 100 µM | > 100 µM |  |  |  |  |  |  |  |  |  |  |
| NC1=NN(c2ccccc2)C(=O)C1C(=O)CCC(=O)Nc1cccc(C(F)(F)F)c1 (centres undefined) | > 100 µM | > 100 µM | > 100 µM | > 100 µM | > 100 µM | > 100 µM | > 100 µM | > 100 µM | > 100 µM | > 100 µM |  |  |  |  |  |  |  |  |  |  |
| COc1cc(OC)c(/C=C/C(=O)c2c(OC)cccc2OC)c(OC)c1 | 3.89 µM | > 100 µM | 6.91 µM | > 26 µM | > 42.1 µM | > 100 µM | > 100 µM | > 100 µM | > 100 µM | > 100 µM | 0.536 µM | 4.03 µM | 1.15 µM | 0.59 µM | 1.14 µM | 0.807 µM | 0.775 µM | 0.517 µM | 0.592 µM |  |
| Cn1cc(C(=O)c2ccccc2)ccc1=O | > 100 µM | > 100 µM | > 100 µM | > 100 µM | > 100 µM | > 100 µM | > 100 µM | > 100 µM | > 100 µM | > 100 µM |  |  |  |  |  |  |  |  |  |  |
| CCCCCCCCCCCCCC1CCC(CC)N1 (centres undefined) | 31.5 µM | 31.4 µM | 18.7 µM | 32.4 µM | 22.4 µM | 36.4 µM | 30.7 µM | 40.6 µM | 18 µM | 40.6 µM |  |  |  |  |  |  |  |  |  |  |
| CC1=C(C)CC2(CCCCC2=O)S(=O)C1 (centres undefined) | > 100 µM | > 100 µM | > 100 µM | > 100 µM | > 100 µM | > 100 µM | > 100 µM | > 100 µM | > 100 µM | > 100 µM |  |  |  |  |  |  |  |  |  |  |
| O=C(c1cccc(O)c1O)c1cn(Cc2ccc(F)cc2)c2cccc(O)c12 | 20.8 µM | > 54.4 µM | 11.4 µM | 19.4 µM | 16.2 µM | 23.2 µM | 17 µM | 7.81 µM | 15.2 µM | 14.3 µM | 7.46 µM | 9.3 µM | 1.55 µM | 5.46 µM | 3.51 µM | 7.93 µM | 3.97 µM | 0.867 µM | 2.95 µM | 4.44 µM |
| NC(=S)N/N=C/c1ccc(OC(=O)COc2ccc(Cl)cc2)cn1 | 9.98 µM | > 100 µM | > 100 µM | > 100 µM | 21.8 µM | > 100 µM | > 100 µM | > 100 µM | > 100 µM | 72.1 µM | 3.64 µM | 30.9 µM | 8.46 µM | 3.18 µM | 2.28 µM | 9.69 µM | 20.9 µM | 0.498 µM | 4.24 µM | 17.9 µM |
| CCOC(=O)Sc1ncnc2nc[nH]c12 | > 100 µM | > 100 µM | > 100 µM | > 100 µM | > 100 µM | > 100 µM | > 100 µM | 6.35 µM | > 100 µM | > 100 µM | 2.31 µM | 38.5 µM | 3.13 µM | 4.03 µM | 3.89 µM | 6.15 µM | 85 µM | 0.358 µM | 12.9 µM | 7.2 µM |
| CN/N=C(/CCN1CCCC1)CC(c1ccccc1)c1c(O)c2ccccc2oc1=O (centres undefined) | > 100 µM | > 100 µM | > 100 µM | > 100 µM | > 100 µM | > 100 µM | > 100 µM | > 100 µM | > 100 µM | > 100 µM |  |  |  |  |  |  |  |  |  |  |
| CCN(CC)c1sc(N(CC)CC)c2c1SSSSS2 | 3.09 µM | 5.54 µM | 2.4 µM | 3.55 µM | 4.53 µM | 14.6 µM | 12.7 µM | 0.998 µM | 13.2 µM | 4.08 µM | 1.2 µM | 1.84 µM | 0.935 µM | 1.68 µM | 1.96 µM | 3.02 µM | 2.64 µM | 0.267 µM | 2.76 µM | 1.79 µM |
| COC(=O)Nc1nc2ccc(Oc3ccc(NC(=O)Nc4ccccc4)cc3)cc2[nH]1 | 5.05 µM | > 25 µM | > 17.7 µM | 4.87 µM | > 14.5 µM | 2.19 µM | > 17 µM | > 8.46 µM | 6.6 µM | > 14.8 µM | 0.18 µM | 2.44 µM | 0.458 µM | 0.106 µM | 0.267 µM | 0.109 µM | 0.183 µM | 0.0744 µM | 0.126 µM | 0.167 µM |
| CC(=O)OC1=NN=C2COC(c3ccccc3OC(C)=O)=NN2C1 | > 50 µM | > 50 µM | > 50 µM | > 50 µM | > 50 µM | > 50 µM | > 50 µM | > 50 µM | > 50 µM | > 50 µM |  |  |  |  |  |  |  |  |  |  |
